Test results as given in ChEMBL document CHEMBL1909294, “Translating clinical findings into knowledge in drug safety evaluation--drug induced liver injury prediction system (DILIps)” (PLoS Comput Biol, 2011).

Key:
[1] = system: Hepatotoxicity;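 as to HepSE Combined Scores: combined hepatic side effect score as listed in the training data of the Drug Induced Liver Injury Prediction System (DILIps)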; as to HepSE hepatic failure: call rule not given here;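 as to HepSE hepatitis: Hepatitis-related hepatic side effect score taken from the training data of DILIps, a prediction system for drug-induced liver injury; call rule not given here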;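 as to HepSE hepatomegaly: hepatic side effect score for hepatomegaly, taken from the training set of the DILIps drug-induced liver injury prediction system; call rule not given here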;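 as to HepSE jaundice: Jaundice-related hepatic side-effect score drawn from the training data of the DILIps (drug-induced liver injury prediction system); call rule not given here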;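 as to HepSE liver fatty: hepatic side effect score for fatty liver, taken from the DILIps training set for predicting drug-induced liver injury; call rule not given here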;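 as to HepSE liver function tests abnormal: hepatic side effect score taken from the DILIps (drug-induced liver injury prediction system) training data, here covering abnormal liver function test findings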
[2] = system: Hepatotoxicity; remark: listed apart in the source;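 as to HepSE Combined Scores: combined hepatic side effect score as listed in the training data of the Drug Induced Liver Injury Prediction System (DILIps)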; as to HepSE hepatic failure: call rule not given here;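 as to HepSE hepatitis: Hepatitis-related hepatic side effect score taken from the training data of DILIps, a prediction system for drug-induced liver injury; call rule not given here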;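 as to HepSE hepatomegaly: hepatic side effect score for hepatomegaly, taken from the training set of the DILIps drug-induced liver injury prediction system; call rule not given here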;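 as to HepSE jaundice: Jaundice-related hepatic side-effect score drawn from the training data of the DILIps (drug-induced liver injury prediction system); call rule not given here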;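 as to HepSE liver function tests abnormal: hepatic side effect score taken from the DILIps (drug-induced liver injury prediction system) training data, here covering abnormal liver function test findings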
[3] = system: Hepatotoxicity; remark: listed apart in the source;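 as to HepSE Combined Scores: combined hepatic side effect score as listed in the training data of the Drug Induced Liver Injury Prediction System (DILIps)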; as to HepSE hepatic failure: call rule not given here;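 as to HepSE hepatitis: Hepatitis-related hepatic side effect score taken from the training data of DILIps, a prediction system for drug-induced liver injury; call rule not given here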;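 as to HepSE hepatomegaly: hepatic side effect score for hepatomegaly, taken from the training set of the DILIps drug-induced liver injury prediction system; call rule not given here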;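 as to HepSE jaundice: Jaundice-related hepatic side-effect score drawn from the training data of the DILIps (drug-induced liver injury prediction system); call rule not given here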;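 as to HepSE liver function tests abnormal: hepatic side effect score taken from the DILIps (drug-induced liver injury prediction system) training data, here covering abnormal liver function test findings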
[4] = system: Hepatotoxicity; remark: listed apart in the source;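 as to HepSE Combined Scores: combined hepatic side effect score as listed in the training data of the Drug Induced Liver Injury Prediction System (DILIps)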; as to HepSE hepatic failure: call rule not given here;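 as to HepSE hepatitis: Hepatitis-related hepatic side effect score taken from the training data of DILIps, a prediction system for drug-induced liver injury; call rule not given here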;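 as to HepSE hepatomegaly: hepatic side effect score for hepatomegaly, taken from the training set of the DILIps drug-induced liver injury prediction system; call rule not given here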;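 as to HepSE jaundice: Jaundice-related hepatic side-effect score drawn from the training data of the DILIps (drug-induced liver injury prediction system); call rule not given here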;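 as to HepSE liver function tests abnormal: hepatic side effect score taken from the DILIps (drug-induced liver injury prediction system) training data, here covering abnormal liver function test findings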
[5] = system: Hepatotoxicity; remark: listed apart in the source; as to HepSE hepatic failure: call rule not given here
[6] = system: Hepatotoxicity; remark: listed apart in the source; as to HepSE hepatic failure: call rule not given here
[7] = system: Hepatotoxicity; remark: listed apart in the source
[8] = system: Hepatotoxicity; remark: listed apart in the source
[9] = system: Hepatotoxicity; remark: listed apart in the source
[10] = system: Hepatotoxicity; remark: listed apart in the source
[11] = system: Hepatotoxicity; remark: listed apart in the source
[12] = system: Hepatotoxicity; remark: listed apart in the source
[13] = system: Hepatotoxicity; remark: listed apart in the source
[14] = system: Hepatotoxicity; remark: listed apart in the source

| Structure (SMILES) | HepSE_hepatitis [1] | HepSE_hepatic necrosis [2] | HepSE_jaundice [3] | HepSE_hepatic failure [4] | HepSE_liver function tests abnormal [5] | HepSE_Combined Scores [6] | HepSE_hepatomegaly [7] | HepSE_liver fatty [8] | HepSE_bilirubinemia [9] | HepSE_cholecystitis [10] | HepSE_elevated liver function tests [11] | HepSE_liver disease [12] | HepSE_cholelithiasis [13] | HepSE_cirrhosis [14] | further results |
| --- | --- | --- | --- | --- | --- | --- | --- | --- | --- | --- | --- | --- | --- | --- | --- |
| CC(C)(S)[C@@H](N)C(=O)O [PENICILLAMINE] | 0 | 0 | 0 | 1 | 0 | 1 | 0 | 0 | 0 | 0 | 0 | 0 | 0 | 0 |  |
| CC1(C)S[C@@H]2[C@H](NC(=O)Cc3ccccc3)C(=O)N2[C@H]1C(=O)O [PENICILLIN G] | 0 | 0 | 0 | 0 | 0 | 0 | 0 | 0 | 0 | 0 | 0 | 0 | 0 | 0 |  |
| CC1(C)S[C@@H]2[C@H](NC(=O)COc3ccccc3)C(=O)N2[C@H]1C(=O)O [PENICILLIN V] | 0 | 0 | 0 | 0 | 0 | 0 | 0 | 0 | 0 | 0 | 0 | 0 | 0 | 0 |  |
| CCCC(C)C1(CC)C(=O)NC(=O)NC1=O (configuration not stated) [PENTOBARBITAL] | 0 | 0 | 0 | 0 | 0 | 0 | 0 | 0 | 0 | 0 | 0 | 0 | 0 | 0 |  |
| OC[C@H]1O[C@@H](n2cnc3c2NC=NC[C@H]3O)C[C@@H]1O [PENTOSTATIN] | 0 | 0 | 0 | 0 | 1 | 3 | 0 | 0 | 0 | 0 | 1 | 1 | 0 | 0 |  |
| CC(=O)CCCCn1c(=O)c2c(ncn2C)n(C)c1=O [PENTOXIFYLLINE] | 1 | 0 | 1 | 0 | 0 | 3 | 0 | 0 | 0 | 1 | 0 | 0 | 0 | 0 |  |
| CCCN1C[C@H](CSC)C[C@@H]2c3cccc4[nH]cc(c34)C[C@H]21 [PERGOLIDE] | 1 | 0 | 1 | 0 | 1 | 6 | 1 | 0 | 0 | 1 | 0 | 0 | 1 | 0 |  |
| CCC[C@H](N[C@@H](C)C(=O)N1[C@H](C(=O)O)C[C@@H]2CCCC[C@@H]21)C(=O)OCC [PERINDOPRIL] | 1 | 0 | 1 | 1 | 0 | 3 | 0 | 0 | 0 | 0 | 0 | 0 | 0 | 0 |  |
| CC1(C)C(C=C(Cl)Cl)C1C(=O)OCc1cccc(Oc2ccccc2)c1 (configuration not stated) [PERMETHRIN] | 0 | 0 | 0 | 0 | 0 | 0 | 0 | 0 | 0 | 0 | 0 | 0 | 0 | 0 |  |
| OCCN1CCN(CCCN2c3ccccc3Sc3ccc(Cl)cc32)CC1 [PERPHENAZINE] | 0 | 0 | 1 | 0 | 0 | 1 | 0 | 0 | 0 | 0 | 0 | 0 | 0 | 0 |  |
| NNCCc1ccccc1 [PHENELZINE] |  |  |  |  |  |  |  |  |  |  |  |  |  |  | HepSE_hepatitis ([1]; Liver): 0; HepSE_hepatic necrosis ([2]; Liver): 0; HepSE_jaundice ([3]; Liver): 1; HepSE_hepatic failure ([4]; Liver): 0; HepSE_liver function tests abnormal ([5]; Liver): 0; HepSE_Combined Scores ([6]; Liver): 1; HepSE_hepatomegaly ([7]; Liver): 0; HepSE_liver fatty ([8]; Liver): 0; HepSE_bilirubinemia ([9]; Liver): 0; HepSE_cholecystitis ([10]; Liver): 0; HepSE_elevated liver function tests ([11]; Liver): 0; HepSE_liver disease ([12]; Liver): 0; HepSE_cholelithiasis ([13]; Liver): 0; HepSE_cirrhosis ([14]; Liver): 0 |
| CC(COc1ccccc1)N(CCCl)Cc1ccccc1 (configuration not stated) [PHENOXYBENZAMINE] | 0 | 0 | 0 | 0 | 0 | 0 | 0 | 0 | 0 | 0 | 0 | 0 | 0 | 0 |  |
| CC(C)(N)Cc1ccccc1 [PHENTERMINE] | 0 | 0 | 0 | 0 | 0 | 0 | 0 | 0 | 0 | 0 | 0 | 0 | 0 | 0 |  |
| Cc1ccc(N(CC2=NCCN2)c2cccc(O)c2)cc1 [PHENTOLAMINE] | 0 | 0 | 0 | 0 | 0 | 0 | 0 | 0 | 0 | 0 | 0 | 0 | 0 | 0 |  |
| O=C1NC(=O)C(c2ccccc2)(c2ccccc2)N1 [PHENYTOIN] |  |  |  |  |  |  |  |  |  |  |  |  |  |  | HepSE_hepatitis ([1]; Liver): 1; HepSE_hepatic necrosis ([2]; Liver): 0; HepSE_jaundice ([3]; Liver): 0; HepSE_hepatic failure ([4]; Liver): 0; HepSE_liver function tests abnormal ([5]; Liver): 0; HepSE_Combined Scores ([6]; Liver): 1; HepSE_hepatomegaly ([7]; Liver): 0; HepSE_liver fatty ([8]; Liver): 0; HepSE_bilirubinemia ([9]; Liver): 0; HepSE_cholecystitis ([10]; Liver): 0; HepSE_elevated liver function tests ([11]; Liver): 0; HepSE_liver disease ([12]; Liver): 0; HepSE_cholelithiasis ([13]; Liver): 0; HepSE_cirrhosis ([14]; Liver): 0 |
| O=P(O)(O)O [PHOSPHORIC ACID] |  |  |  |  |  |  |  |  |  |  |  |  |  |  | HepSE_hepatitis ([1]; Liver): 0; HepSE_hepatic necrosis ([2]; Liver): 0; HepSE_jaundice ([3]; Liver): 0; HepSE_hepatic failure ([4]; Liver): 0; HepSE_liver function tests abnormal ([5]; Liver): 0; HepSE_Combined Scores ([6]; Liver): 0; HepSE_hepatomegaly ([7]; Liver): 0; HepSE_liver fatty ([8]; Liver): 0; HepSE_bilirubinemia ([9]; Liver): 0; HepSE_cholecystitis ([10]; Liver): 0; HepSE_elevated liver function tests ([11]; Liver): 0; HepSE_liver disease ([12]; Liver): 0; HepSE_cholelithiasis ([13]; Liver): 0; HepSE_cirrhosis ([14]; Liver): 0 |
| CC1=C(C/C=C(\C)CCC[C@H](C)CCC[C@H](C)CCCC(C)C)C(=O)c2ccccc2C1=O [PHYTONADIONE] | 0 | 0 | 0 | 0 | 0 | 1 | 0 | 0 | 1 | 0 | 0 | 0 | 0 | 0 |  |
| CC[C@@H]1C(=O)OC[C@@H]1Cc1cncn1C [PILOCARPINE] | 1 | 0 | 0 | 0 | 1 | 4 | 0 | 0 | 1 | 0 | 0 | 0 | 1 | 0 |  |
